Experimental data published in patent US11661426B2, “Imidazole-containing inhibitors of ALK2 kinase” (BioCryst Pharmaceuticals, Inc., priority 2017, dated 2023).

Target: ALK2 (Homo sapiens (Human), UniProt Q04771)
Test: ALK2 inhibition, LanthaScreen Eu Kinase Binding Assay (ThermoFisher Scientific / Life Technologies)
Conditions: read-out: Measured Ki (IC50) Value for Compounds: IC50
Protocol: Biochemical assays to measure the inhibitory effects of the compounds were performed by ThermoFisher Scientific (Life Technologies). ALK2 inhibition was tested using LanthaScreen™ Eu Kinase Binding Assay screening protocol.

ALK2, sequence (Q04771 21-509): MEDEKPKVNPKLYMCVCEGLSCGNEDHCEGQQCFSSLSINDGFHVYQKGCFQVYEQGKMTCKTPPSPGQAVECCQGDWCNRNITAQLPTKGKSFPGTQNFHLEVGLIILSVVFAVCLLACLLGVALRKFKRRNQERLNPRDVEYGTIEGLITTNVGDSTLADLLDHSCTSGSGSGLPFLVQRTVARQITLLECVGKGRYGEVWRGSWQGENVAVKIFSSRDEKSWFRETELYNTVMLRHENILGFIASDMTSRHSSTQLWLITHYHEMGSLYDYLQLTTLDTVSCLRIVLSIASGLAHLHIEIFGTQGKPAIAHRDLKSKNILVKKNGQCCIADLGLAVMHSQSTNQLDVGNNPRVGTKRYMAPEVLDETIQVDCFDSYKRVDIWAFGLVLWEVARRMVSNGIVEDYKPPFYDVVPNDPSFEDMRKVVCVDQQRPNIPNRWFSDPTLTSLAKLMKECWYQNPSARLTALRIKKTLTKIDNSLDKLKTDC

SMILES | IC50
COc1cc(-n2cnc(Nc3cc4ccccc4cn3)c2)cc(OC)c1OC [Compound 195b, N-(1-(3,4,5-trimethoxyphenyl)-1H-imidazol-4-yl)isoquinolin-3-amine] | < 100 nM
COc1cc(-n2cnc(Nc3nc(N4CCC[C@H]4C(N)=O)nc4c3CN(Cc3ccccc3)CC4)c2)cc(OC)c1OC [Compound 152a, (S)-1-(6-benzyl-4-(1-(3,4,5-trimethoxyphenyl)-1H-imidazol-4-ylamino)-5,6,7,8-tetrahydropyrido[4,3-d]pyrimidin-2-yl)pyrrolidine-2-carboxamide] | 100 to 1000 nM
COc1cc(-n2cnc(Nc3nc(N4CCC[C@H]4C(N)=O)nc4cccc(F)c34)c2)cc(OC)c1OC [Compound 340c, (S)-1-(5-fluoro-4-((1-(3,4,5-trimethoxyphenyl)-1H-imidazol-4-yl)amino)quinazolin-2-yl)pyrrolidine-2-carboxamide] | 100 to 1000 nM
COc1cc(Cl)cc(-n2cnc(Nc3nc(N4CCC[C@H]4CO)c4cccn4n3)c2)c1 [Compound 249d, (S)-(1-(2-((1-(3-chloro-5-methoxyphenyl)-1H-imidazol-4-yl)amino)pyrrolo[2,1-f][1,2,4]triazin-4-yl)pyrrolidin-2-yl)methanol] | 100 to 1000 nM
COc1cc(-n2cnc(Nc3nc(N4CCC[C@H]4C(N)=O)nc4c3CCN(CCC(N)=O)C4)c2)cc(OC)c1OC [Compound 255a, (S)-1-(7-(3-amino-3-oxopropyl)-4-((1-(3,4,5-trimethoxyphenyl)-1H-imidazol-4-yl)amino)-5,6,7,8-tetrahydropyrido[3,4-d]pyrimidin-2-yl)pyrrolidine-2-carboxamide] | < 100 nM
COc1cc(-n2cnc(Nc3nc(N4CCCC4)nc4c3CCN(C(=O)OC(C)(C)C)C4)c2)cc(OC)c1OC [Compound 184a, tert-butyl 2-(pyrrolidin-1-yl)-4-((1-(3,4,5-trimethoxyphenyl)-1H-imidazol-4-yl)amino)-5,6-dihydropyrido[3,4-d]pyrimidine-7(8H)-carboxylate] | < 100 nM
COc1cc(-n2cnc(Nc3nc(N4CCC[C@H]4CO)c4ccc(F)cc4n3)c2)cc(OC)c1OC [Compound 276b, (S)-(1-(7-fluoro-2-((1-(3,4,5-trimethoxyphenyl)-1H-imidazol-4-yl)amino)quinazolin-4-yl)pyrrolidin-2-yl)methanol] | < 100 nM
OC[C@@H]1CCCN1c1nc(Nc2cn(-c3ccccc3)cn2)c2scc(Br)c2n1 [Compound 87c, (S)-(1-(7-bromo-4-((1-phenyl-1H-imidazol-4-yl)amino)thieno[3,2-d]pyrimidin-2-yl)pyrrolidin-2-yl)methanol] | 100 to 1000 nM
COc1cc(-n2cnc(Nc3nc(N4CCC[C@H]4CO)c4ccc(C)cc4n3)c2)cc(OC)c1OC [Compound 393b, (S)-(1-(7-methyl-2-((1-(3,4,5-trimethoxyphenyl)-1H-imidazol-4-yl)amino)quinazolin-4-yl)pyrrolidin-2-yl)methanol] | 100 to 1000 nM
COc1cc(-n2cnc(Nc3nc(N4CCC[C@@H]4C(N)=O)nc4ccsc34)c2)cc(OC)c1OC [Compound 299a, (R)-1-(4-((1-(3,4,5-trimethoxyphenyl)-1H-imidazol-4-yl)amino)thieno[3,2-d]pyrimidin-2-yl)pyrrolidine-2-carboxamide] | < 100 nM
COc1cc(-n2cnc(Nc3nc(N4CCC[C@H]4C(C)(C)O)c4cccn4n3)c2)cc(OC)c1OC [Compound 222b, (S)-2-(1-(2-((1-(3,4,5-trimethoxyphenyl)-1H-imidazol-4-yl)amino)pyrrolo[2,1-f][1,2,4]triazin-4-yl)pyrrolidin-2-yl)propan-2-ol] | < 100 nM
